From US20240327381A1, “Compounds and Compositions for Selective Degradation of Engineered Proteins” (Celgene Corporation, priority 2023, published 2024)
Like-named read-outs stand apart in the source and are kept apart here.

Columns and labels:
Helios = molecular target: T1, Helios (Homo sapiens, UniProt Q9UKS7); assay: Helios degradation in Jurkat/Helios/HiBit cells (Nano-Glo luminescence); format: cell-based; details: 18 hr, read-out: Helios Jurkat Hibit IC50
T1 construct: endogenous in cells; host or cells: Jurkat cells, CRISPR/Cas9 knock-in of HiBit at the IKZF2 locus
T1 sequence (Q9UKS7 whole entry): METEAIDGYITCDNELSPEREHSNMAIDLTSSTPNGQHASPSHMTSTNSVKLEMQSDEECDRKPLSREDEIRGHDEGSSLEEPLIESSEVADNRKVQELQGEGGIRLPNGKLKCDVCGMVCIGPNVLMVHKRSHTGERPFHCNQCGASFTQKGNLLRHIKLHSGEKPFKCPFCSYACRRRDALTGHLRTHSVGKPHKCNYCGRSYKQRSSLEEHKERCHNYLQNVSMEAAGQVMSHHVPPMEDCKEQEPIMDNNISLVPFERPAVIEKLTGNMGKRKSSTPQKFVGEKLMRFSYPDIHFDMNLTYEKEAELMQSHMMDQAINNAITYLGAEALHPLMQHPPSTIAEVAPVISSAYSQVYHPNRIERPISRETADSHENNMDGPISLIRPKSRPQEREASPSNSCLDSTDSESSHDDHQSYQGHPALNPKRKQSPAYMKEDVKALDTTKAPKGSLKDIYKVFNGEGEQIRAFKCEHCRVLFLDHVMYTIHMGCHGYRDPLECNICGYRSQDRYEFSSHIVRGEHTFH
T1 sequence (Q96SW2 whole entry, further chain): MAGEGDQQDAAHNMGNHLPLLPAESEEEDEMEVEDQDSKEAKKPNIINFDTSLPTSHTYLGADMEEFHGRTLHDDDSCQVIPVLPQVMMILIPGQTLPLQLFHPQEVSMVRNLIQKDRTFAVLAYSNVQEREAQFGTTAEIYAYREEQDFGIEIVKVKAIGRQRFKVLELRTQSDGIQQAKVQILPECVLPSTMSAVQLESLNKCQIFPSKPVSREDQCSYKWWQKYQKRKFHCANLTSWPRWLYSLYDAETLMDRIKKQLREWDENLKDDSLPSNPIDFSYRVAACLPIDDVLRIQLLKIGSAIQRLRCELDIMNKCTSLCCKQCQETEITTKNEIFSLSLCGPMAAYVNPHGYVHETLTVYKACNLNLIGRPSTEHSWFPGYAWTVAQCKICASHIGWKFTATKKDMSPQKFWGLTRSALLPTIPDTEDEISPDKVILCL
T1 sequence (Q16531 whole entry partner): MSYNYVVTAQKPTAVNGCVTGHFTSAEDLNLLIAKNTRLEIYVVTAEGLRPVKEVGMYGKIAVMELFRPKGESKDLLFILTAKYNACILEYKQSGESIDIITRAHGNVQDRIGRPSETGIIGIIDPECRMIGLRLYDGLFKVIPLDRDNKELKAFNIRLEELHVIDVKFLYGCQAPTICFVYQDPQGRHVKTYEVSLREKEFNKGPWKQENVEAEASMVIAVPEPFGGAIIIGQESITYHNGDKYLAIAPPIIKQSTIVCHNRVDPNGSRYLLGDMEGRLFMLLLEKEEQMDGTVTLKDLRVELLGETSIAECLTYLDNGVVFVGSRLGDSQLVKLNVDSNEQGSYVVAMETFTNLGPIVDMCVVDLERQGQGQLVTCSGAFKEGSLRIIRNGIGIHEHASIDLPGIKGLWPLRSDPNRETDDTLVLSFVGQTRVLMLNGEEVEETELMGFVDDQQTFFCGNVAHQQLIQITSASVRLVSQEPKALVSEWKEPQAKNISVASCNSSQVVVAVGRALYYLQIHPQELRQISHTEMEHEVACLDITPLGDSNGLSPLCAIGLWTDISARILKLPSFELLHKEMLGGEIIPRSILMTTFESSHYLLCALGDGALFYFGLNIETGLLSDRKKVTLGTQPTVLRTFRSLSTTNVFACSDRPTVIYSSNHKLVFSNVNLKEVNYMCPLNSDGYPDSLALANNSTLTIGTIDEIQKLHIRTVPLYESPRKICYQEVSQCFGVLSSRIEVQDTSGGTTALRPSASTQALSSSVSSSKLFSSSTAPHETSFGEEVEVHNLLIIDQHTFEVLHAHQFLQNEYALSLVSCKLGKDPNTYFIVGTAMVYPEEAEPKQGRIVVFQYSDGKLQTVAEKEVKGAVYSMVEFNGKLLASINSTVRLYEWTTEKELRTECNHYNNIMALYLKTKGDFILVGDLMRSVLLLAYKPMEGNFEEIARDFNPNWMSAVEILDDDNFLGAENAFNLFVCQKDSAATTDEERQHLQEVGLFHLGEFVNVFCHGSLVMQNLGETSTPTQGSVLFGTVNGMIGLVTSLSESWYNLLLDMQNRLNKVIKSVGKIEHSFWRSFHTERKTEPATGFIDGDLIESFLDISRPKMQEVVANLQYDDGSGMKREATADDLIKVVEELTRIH
Description: For Helios, a stable Jurkat cell line was engineered using CRISPR/Cas9 to insert an in-frame HiBit tag into the carboxy-terminal reading frame of the IKZF2 gene. The sequence of human Helios is shown below:
Test compounds were transferred to 1536 well plates using an acoustic dispenser, and Jurkat/Helios/HiBit cells in DMEM/10% FCS were plated at 10,000 cells/well in a final volume of 5 μL. Cells were incubated at 37 C, 95% RH for 18 hr. Luciferase activity was measured by adding 2 μL/well of Nano-Glo reagent (Promega), incubating at RT for 30 min, and reading luminescence on a microtiter plate reader.
(§1) To determine the EC50 value of a compound for the degradation of a given substrate (concentration of compound that achieves half the maximum degradation observed), a four-parameter logistic model (sigmoidal dose-response model) (FIT=(A+{(B−A)/1+[(C/x)D]})) where C is the inflection point (EC50), D is the […], and A and B are the low and high limits of the fit, respectively) was used. All substrate degradation curves were processed and evaluated using ActivityBase (IDBS), a data analysis software package. Ymax is the % protein degraded (Ymin=100−Ymax and is minimum percent protein remaining).

[1] = molecular target: T2, IKZF1 ZNF2_ZNF3 Q1F degron-tagged CD19 CAR (Homo sapiens, UniProt Q13422, Q146F); assay: Degradation of Q1F degron-tagged CD19 CAR in Jurkat cells (flow cytometry of CAR levels); format: cell-based; details: for DC50: Jurkat cells expressing CD19 CAR tagged with IKZF1 ZNF2_ZNF3 Q1F, 18 hours at 37° C., CAR levels normalized to untreated cells, read-out: Q1F Jurkat IC50; for Dmax: read-out: Q1F Jurkat-YMax
T2 construct: ZNF2_ZNF3 Q1F degron (GERPFFCNQCGASFTQKGNLLRHIKLHSGEKPFKCHLCNYACRRRDALTGHLRTHS); fused on or other part: anti-CD19 scFv, CD28 transmembrane domain, 4-1BB costimulatory domain, CD3 zeta signaling domain (the CAR that carries the degron), and Nluc
T2 sequence (Q13422 whole entry Q146F, the tested form may be a part): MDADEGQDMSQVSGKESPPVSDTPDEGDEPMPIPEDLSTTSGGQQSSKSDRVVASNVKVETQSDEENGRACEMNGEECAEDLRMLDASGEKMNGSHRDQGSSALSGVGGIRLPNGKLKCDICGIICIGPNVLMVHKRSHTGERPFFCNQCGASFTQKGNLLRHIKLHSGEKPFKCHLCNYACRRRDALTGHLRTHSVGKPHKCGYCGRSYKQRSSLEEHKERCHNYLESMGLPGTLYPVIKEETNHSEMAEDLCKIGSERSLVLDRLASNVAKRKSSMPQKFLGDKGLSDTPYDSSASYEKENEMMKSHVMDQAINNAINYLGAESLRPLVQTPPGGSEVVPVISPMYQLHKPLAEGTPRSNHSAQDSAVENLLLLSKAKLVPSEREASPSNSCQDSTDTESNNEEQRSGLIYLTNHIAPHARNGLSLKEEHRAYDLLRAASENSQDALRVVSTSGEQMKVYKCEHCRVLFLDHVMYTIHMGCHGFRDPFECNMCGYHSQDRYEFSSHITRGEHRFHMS
Excerpt: Q1F degron-targeting compounds were screened in Jurkat cells engineered to express a IKZF1 ZNF2_ZNF3 Q1F. The cell line was generated with lentiviral vectors containing CD19 CARs tagged with IKZF1 ZNF2_ZNF3 QIF Nluc, which were transduced into Jurkat cells. The CD19 CAR comprised an anti-CD19 scFv, a CD28 transmembrane domain, a 4-1BB costimulatory domain, a CD3ζ signaling domain, and a ZNF2_ZNF3 Q1F degron (GERPFFCNQCGASFTQKGNLLRHIKLHSGEKPFKCHLCNYACRRRDALTGHLRTHS; SEQ ID NO: 1; Q1F substitution underlined). Transduced cells were treated with a titration of each small molecule or no drug and then incubated at 37° C. for 18 hours. Cells were washed and stained with appropriate staining reagent to measure CAR levels. The cells were incubated at 4° C. in the staining reagents for 20 mins and then washed 3 times before being read on the flow cytometer. CAR levels were normalized to cells that had not been treated with drug. EC50 and Ymin values were calculated using the resulting titration curve. This identified small molecules that potently degraded the Q1F degron-tagged CARs (Table 1).
as §1

[2] = Ymax is the % protein degraded, Jurkat cells expressing Q1F degron-tagged CD19 CAR, 18 hours

| Compound | DC50 (Helios) [nM] | DC50 [1] [nM] | Dmax [1, 2] [%] | Dmax ([1]; Jurkat, 18 h) [%] |
| --- | --- | --- | --- | --- |
| O=C1CCC(N2Cc3c(cc(F)c(C4CCN(CCC(F)(F)F)CC4)c3F)C2=O)C(=O)N1 (stereo not drawn) [Compound 114, 3-(4,6-difluoro-1-oxo-5-(1-(3,3,3-trifluoropropyl)piperidin-4-yl)isoindolin-2-yl)piperidine-2,6-dione] | ≥ 10000 | 10.8 | 74.8 | – |
| CN(CCN1CCC(c2c(F)cc3c(c2F)CN(C2CCC(=O)NC2=O)C3=O)CC1)Cc1ccccc1 (stereo not drawn) [Compound 65, 3-(5-(1-(2-(benzyl(methyl)amino)ethyl)piperidin-4-yl)-4,6-difluoro-1-oxoisoindolin-2-yl)piperidine-2,6-dione] | ≥ 10000 | 1.09 | 85.5 | – |
| O=C1CCC(N2Cc3cc(C4(O)CCN(Cc5ccc6ncsc6c5)CC4)c(F)cc3C2=O)C(=O)N1 (stereo not drawn) [Compound 35, 3-(5-(1-(benzo[d]thiazol-6-ylmethyl)-4-hydroxypiperidin-4-yl)-6-fluoro-1-oxoisoindolin-2-yl) piperidine-2,6-dione] | ≥ 10000 | 144 | 63.3 | – |
| O=C1CCC(N2Cc3c(cc(F)c(C4CCN(CC5CCCCC5)CC4)c3F)C2=O)C(=O)N1 (stereo not drawn) [Compound 67, 3-(5-(1-(cyclohexylmethyl)piperidin-4-yl)-4,6-difluoro-1-oxoisoindolin-2-yl)piperidine-2,6-dione] | ≥ 10000 | 0.563 | 89 | – |
| O=C1CCC(N2Cc3c(cc(F)c(C4(O)CCN(Cc5ccc6ccccc6n5)CC4)c3F)C2=O)C(=O)N1 (stereo not drawn) [Compound 29, 3-(4,6-difluoro-5-(4-hydroxy-1-(quinolin-2-ylmethyl)piperidin-4-yl)-1-oxoisoindolin-2-yl)piperidine-2,6-dione] | ≥ 10000 | 6.42 | 87 | – |
| O=C1CCC(N2Cc3cc(C4CCN(Cc5ccc6c(c5)CCC6)CC4)c(F)cc3C2=O)C(=O)N1 (stereo not drawn) [Compound 88, 3-(5-(1-((2,3-dihydro-1H-inden-5-yl)methyl)piperidin-4-yl)-6-fluoro-1-oxoisoindolin-2-yl)piperidine-2,6-dione] | ≥ 10000 | 3.1 | 91.6 | – |
| CC(C)CN1CCC(c2c(F)cc3c(c2F)CN(C2CCC(=O)NC2=O)C3=O)CC1 (stereo not drawn) [Compound 95, 3-(4,6-difluoro-5-(1-isobutylpiperidin-4-yl)-1-oxoisoindolin-2-yl)piperidine-2,6-dione] | ≥ 10000 | 10.5 | 84.5 | – |
| O=C1CCC(N2Cc3c(cc(F)c(C4CCN(Cc5cccc(-n6cccn6)c5)CC4)c3F)C2=O)C(=O)N1 (stereo not drawn) [Compound 49, 3-(5-(1-(3-(1H-pyrazol-1-yl)benzyl)piperidin-4-yl)-4,6-difluoro-1-oxoisoindolin-2-yl)piperidine-2,6-dione] | ≥ 10000 | 0.108 | 91 | – |
| O=C1CCC(N2Cc3c(cc(F)c(C4(O)CCN(Cc5ccc(C(F)F)cc5)CC4)c3F)C2=O)C(=O)N1 (stereo not drawn) [Compound 19, 3-(5-(1-(4-(difluoromethyl)benzyl)-4-hydroxypiperidin-4-yl)-4,6-difluoro-1-oxoisoindolin-2-yl)piperidine-2,6-dione] | ≥ 10000 | 5.41 | 83.3 | – |
| O=C1CCC(N2Cc3c(cc(F)c(C4CCN(Cc5ccc(Cl)cc5)CC4)c3F)C2=O)C(=O)N1 (stereo not drawn) [Compound 96, 3-(5-(1-(4-chlorobenzyl)piperidin-4-yl)-4,6-difluoro-1-oxoisoindolin-2-yl)piperidine-2,6-dione] | ≥ 10000 | 4.17 | 89.7 | – |
| CS(=O)(=O)NCCN1CCC(c2c(F)cc3c(c2F)CN(C2CCC(=O)NC2=O)C3=O)CC1 (stereo not drawn) [Compound 98, N-(2-(4-(2-(2,6-dioxopiperidin-3-yl)-4,6-difluoro-1-oxoisoindolin-5-yl)piperidin-1-yl)ethyl)methanesulfonamide] | ≥ 10000 | 39.8 | 76.9 | – |
| O=C1CCC(N2Cc3c(cc(F)c(C4CCN(Cc5ccc6ncsc6c5)CC4)c3F)C2=O)C(=O)N1 (stereo not drawn) [Compound 18, 3-(5-(1-(benzo[d]thiazol-6-ylmethyl)piperidin-4-yl)-4,6-difluoro-1-oxoisoindolin-2-yl) piperidine-2,6-dione] | ≥ 10000 | 0.576 | 93.4 | – |
| O=C1CCC(N2Cc3c(cc(F)c(C(=O)N4CCc5c(Cl)cccc5C4)c3F)C2=O)C(=O)N1 (stereo not drawn) [Compound 71, 3-[5-(5-chloro-3,4-dihydro-1H-isoquinoline-2-carbonyl)-4,6-difluoro-1-oxo-isoindolin-2-yl]piperidine-2,6-dione] | ≥ 10000 | 23.7 | 95.7 | – |
| O=C1CCC(N2Cc3c(cc(F)c(C4CCN(Cc5ccc(-n6ccnc6)cc5)CC4)c3F)C2=O)C(=O)N1 (stereo not drawn) [Compound 8, 3-(5-(1-(4-(1H-imidazol-1-yl)benzyl)piperidin-4-yl)-4,6-difluoro-1-oxoisoindolin-2-yl)piperidine-2,6-dione] | ≥ 10000 | 4.97 | 91.7 | – |
| O=C1CCC(N2Cc3c(cc(F)c(C4CCN(C5CCCCC5)CC4)c3F)C2=O)C(=O)N1 (stereo not drawn) [Compound 97, 3-(5-(1-cyclohexylpiperidin-4-yl)-4,6-difluoro-1-oxoisoindolin-2-yl)piperidine-2,6-dione] | ≥ 10000 | 3.88 | 88.3 | – |
| O=C1CCC(N2Cc3c(cc(F)c(C4CCN(Cc5ccsc5)CC4)c3F)C2=O)C(=O)N1 (stereo not drawn) [Compound 6, 3-(4,6-difluoro-1-oxo-5-(1-(thiophen-3-ylmethyl)piperidin-4-yl)isoindolin-2-yl)piperidine-2,6-dione] | ≥ 10000 | 5 | 89.1 | – |
| O=C1CCC(N2Cc3c(cc(F)c(C4CCN(Cc5cccc6ncsc56)CC4)c3F)C2=O)C(=O)N1 (stereo not drawn) [Compound 64, 3-(5-(1-(benzo[d]thiazol-7-ylmethyl)piperidin-4-yl)-4,6-difluoro-1-oxoisoindolin-2-yl)piperidine-2,6-dione] | ≥ 10000 | 2.11 | 92.9 | – |
| O=C1CCC(N2Cc3cc(C4CCN(Cc5ccc6scnc6c5)CC4)c(F)cc3C2=O)C(=O)N1 (stereo not drawn) [Compound 86, 3-(5-(1-(benzo[d]thiazol-5-ylmethyl)piperidin-4-yl)-6-fluoro-1-oxoisoindolin-2-yl)piperidine-2,6-dione] | ≥ 10000 | 1.94 | 92.1 | – |
| O=C1CCC(N2Cc3c(cc(F)c(C4CCN(CCO)CC4)c3F)C2=O)C(=O)N1 (stereo not drawn) [Compound 123, 3-(4,6-difluoro-5-(1-(2-hydroxyethyl)piperidin-4-yl)-1-oxoisoindolin-2-yl)piperidine-2,6-dione] | ≥ 10000 | 21.3 | 74.5 | – |
| O=C1CCC(N2Cc3c(cc(F)c(CNCc4ccc(C(F)F)cc4)c3F)C2=O)C(=O)N1 (stereo not drawn) [Compound 79, 3-(5-(((4-(difluoromethyl)benzyl)amino)methyl)-4,6-difluoro-1-oxoisoindolin-2-yl)piperidine-2,6-dione] | ≥ 10000 | 162 | 60 | – |
| O=C1CCC(N2Cc3cc(C4CCN(Cc5ccc(C(F)(F)F)cc5)CC4)c(F)cc3C2=O)C(=O)N1 (stereo not drawn) [Compound 85, 3-(6-fluoro-1-oxo-5-(1-(4-(trifluoromethyl)benzyl)piperidin-4-yl)isoindolin-2-yl) piperidine-2,6-dione] | ≥ 10000 | 1.53 | – | 89.3 |
| O=C1CCC(N2Cc3c(cc(F)c(C4CCN(Cc5nc(C6CC6)cs5)CC4)c3F)C2=O)C(=O)N1 (stereo not drawn) [Compound 104, 3-(5-(1-((4-cyclopropylthiazol-2-yl)methyl)piperidin-4-yl)-4,6-difluoro-1-oxoisoindolin-2-yl)piperidine-2,6-dione] | ≥ 10000 | 30.9 | 83.6 | – |
| O=C1CCC(N2Cc3c(cc(F)c(C4(O)CCN(CC5CCCCC5)CC4)c3F)C2=O)C(=O)N1 (stereo not drawn) [Compound 33, 3-(5-(1-(cyclohexylmethyl)-4-hydroxypiperidin-4-yl)-4,6-difluoro-1-oxoisoindolin-2-yl)piperidine-2,6-dione] | ≥ 10000 | 192 | 60.4 | – |
